Data from patent US9163256B2, “Mutant receptors and their use in a nuclear receptor-based inducible gene expression system” (priority 2004, dated 2015).
pEC50: −log10 of the molar value.

How the values were obtained:
[1] = target: CfEcR-DEF mutant V107I/Y127E/G (Choristoneura fumiferana, UniProt O77255, INS541G/V390I/Y410E); assay: GAL4-driven luciferase reporter assay in NIH3T3 cells; type: cell-based; conditions: mutant V107I/Y127E/G; for pEC50: read-out: EC50; for Rel Max FI: relative to max fold induction of GS-E ligand
Experimental: (§1) This construct was prepared in the same way as in switch 1.1 above except wild-type CfEcR-DEF was replaced with mutant CfEcR-DEF comprising a ligand binding domain comprising a substitution mutation selected from Table 1 below.
The Gal-4-CfEcR-DEF(VYG) mutant was created by inserting an extra glycine at the C-terminal end of EcR substitution mutant V107I/Y127E [CfECR(VY)] by PCR. Essentially, this was done in two steps: PCR-amplification of CfEcR-DEF(VYG) and substitution of the CfEcR(VY) in the vector GAL4-CfEcR DEF(VY) pBIND 1-9 with the PCR-amplified CfEcR-DEF(VYG). The CfEcR-DEF region (with the extra glycine) was amplified by using the vector GAL4-CfEcR DEF(VY) pBIND 1-9 as template and the following PCR primers: […]
(§2) DNAs were transfected into mouse NIH3T3 cells (ATCC) as follows. Standard methods for culture and maintenance of the cells were followed. Cells were harvested and plated 96-well plates at 2,500 cells per well, in 50 μL of growth medium containing 10% fetal bovine serum (FBS). Twenty-four hours later, the cells were treated with 35 μL of serum-free growth medium containing either dimethylsulfoxide (DMSO; control) or a DMSO solution of ligand. The cells were then transfected using Superfect (Qiagen Inc.) transfection reagent. For each well, 0.625 μL of Superfect was mixed with 14.2 μL of serum-free growth medium. 0.16 μg of reporter construct and 0.04 μg of each receptor construct were added to the transfection reagent mix. The contents of the transfection mix were mixed in a vortex mixer and let stand at room temperature for 30 minutes. At the end of incubation, 15 μL of transfection mix was added to the cells. The cells were maintained at 37° C. and 5% CO2 for 48 hours in 5% FBS.
(§3) Reporter Assays: Cells were harvested 40 hours after adding ligands. 125 μL of passive lysis buffer (part of Dual-Luciferase reporter assay system from Promega Corporation) were added to each well of the […] plate. The plates were placed on a rotary shaker for 15 minutes. Twenty μL of lysate were assayed. Luciferase activity was measured using Dual-Luciferase reporter assay system from Promega Corporation following the manufacturer's instructions. Fold induction (FI) activities were calculated by dividing relative light units (“RLU”) in ligand treated cells with RLU in DMSO treated cells (untreated control).

[2] = target: CfEcR-DEF mutant V96E (Choristoneura fumiferana, UniProt O77255, V379E); assay: cell-based; conditions: mutant V96E; for pEC50: read-out: EC50
Experimental: as §1, §2, §3

[3] = target: CfEcR-DEF mutant W238E (Choristoneura fumiferana, UniProt O77255, W521E); assay: cell-based; conditions: mutant W238E; for pEC50: read-out: EC50
Experimental: as §1, §2, §3

[4] = target: CfEcR-DEF mutant F109M (Choristoneura fumiferana, UniProt O77255, F392M); assay: cell-based; conditions: mutant F109M; for pEC50: read-out: EC50; for Rel Max FI: relative to max fold induction of GS-E ligand
Experimental: as §1, §2, §3

[5] = target: CfEcR-DEF mutant Y120M (Choristoneura fumiferana, UniProt O77255, Y403M); assay: cell-based; conditions: mutant Y120M; for pEC50: read-out: EC50
Experimental: as §1, §2, §3

[6] = target: CfEcR-DEF mutant F48W (Choristoneura fumiferana, UniProt O77255, F331W); assay: cell-based; conditions: mutant F48W; for pEC50: read-out: EC50; for Rel Max FI: relative to max fold induction of GS-E ligand
Experimental: as §1, §2, §3

[7] = target: CfEcR-DEF mutant A110N (Choristoneura fumiferana, UniProt O77255, A393N); assay: cell-based; conditions: mutant A110N; for pEC50: read-out: EC50; for Rel Max FI: relative to max fold induction of GS-E ligand
Experimental: as §1, §2, §3

[8] = target: CfEcR-DEF mutant T52P (Choristoneura fumiferana, UniProt O77255, T335P); assay: cell-based; conditions: mutant T52P; for pEC50: read-out: EC50
Experimental: as §1, §2, §3

[9] = target: CfEcR-DEF mutant F48Y (Choristoneura fumiferana, UniProt O77255, F331Y); assay: cell-based; conditions: mutant F48Y; for pEC50: read-out: EC50; for Rel Max FI: relative to max fold induction of GS-E ligand
Experimental: as §1, §2, §3

[10] = target: CfEcR-DEF mutant V128F (Choristoneura fumiferana, UniProt O77255, V411F); assay: cell-based; conditions: mutant V128F; for pEC50: read-out: EC50
Experimental: as §1, §2, §3

[11] = test system: CfEcR-DEF mutant N119F; assay: GAL4-driven luciferase reporter assay in NIH3T3 cells; type: cell-based, Choristoneura fumiferana
Experimental: as §1, §2, §3

Sequence of CfEcR-DEF mutant A110N (O77255 entry or part of it A393N): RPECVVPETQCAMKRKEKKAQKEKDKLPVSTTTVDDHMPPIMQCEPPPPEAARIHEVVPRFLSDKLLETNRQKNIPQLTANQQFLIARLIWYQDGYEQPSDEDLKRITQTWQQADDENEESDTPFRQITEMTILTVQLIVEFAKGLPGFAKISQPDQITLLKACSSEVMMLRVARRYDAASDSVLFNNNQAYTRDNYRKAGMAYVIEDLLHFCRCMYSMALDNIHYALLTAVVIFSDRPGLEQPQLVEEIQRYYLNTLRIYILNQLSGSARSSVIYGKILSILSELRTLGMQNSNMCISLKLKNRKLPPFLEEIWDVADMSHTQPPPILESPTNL
Sequence of CfEcR-DEF mutant A110N (P28702 299-449, stated change not applied, further chain): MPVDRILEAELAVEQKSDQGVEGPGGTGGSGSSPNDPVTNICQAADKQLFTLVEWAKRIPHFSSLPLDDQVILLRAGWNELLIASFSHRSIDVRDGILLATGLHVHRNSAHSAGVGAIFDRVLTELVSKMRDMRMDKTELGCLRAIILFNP
Sequence of CfEcR-DEF mutant T52P (P28702 298-449): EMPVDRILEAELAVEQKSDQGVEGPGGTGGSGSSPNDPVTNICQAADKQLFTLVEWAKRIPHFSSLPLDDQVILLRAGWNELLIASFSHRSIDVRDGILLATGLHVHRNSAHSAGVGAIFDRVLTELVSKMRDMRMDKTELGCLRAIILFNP
Sequence of CfEcR-DEF mutant T52P (O77255 entry or part of it T335P): as the sequence (O77255 entry or part of it A393N) above, with T129P, N187A counted along it
Sequence of CfEcR-DEF mutant V96E (O77255 entry or part of it V379E): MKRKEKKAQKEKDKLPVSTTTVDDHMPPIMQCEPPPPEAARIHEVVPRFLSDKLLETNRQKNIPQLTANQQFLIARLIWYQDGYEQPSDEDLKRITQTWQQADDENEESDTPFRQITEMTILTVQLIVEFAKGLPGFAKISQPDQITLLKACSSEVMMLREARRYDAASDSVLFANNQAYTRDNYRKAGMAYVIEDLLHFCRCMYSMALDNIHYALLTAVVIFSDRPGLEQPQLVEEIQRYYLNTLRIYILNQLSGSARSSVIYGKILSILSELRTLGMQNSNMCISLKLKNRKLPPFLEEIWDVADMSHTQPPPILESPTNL
Sequence of CfEcR-DEF mutant V96E (P28702 299-449, further chain): as the sequence (P28702 299-449, stated change not applied, further chain) above
Sequence of CfEcR-DEF mutant F48Y (O77255 entry or part of it F331Y): as the sequence (O77255 entry or part of it A393N) above, with F125Y, N187A counted along it
Sequence of CfEcR-DEF mutant F48Y (P28702 299-449, further chain): as the sequence (P28702 299-449, stated change not applied, further chain) above
Sequence of CfEcR-DEF mutant F48W (P28702 299-449): as the sequence (P28702 299-449, stated change not applied, further chain) above
Sequence of CfEcR-DEF mutant F48W (O77255 entry or part of it F331W): as the sequence (O77255 entry or part of it A393N) above, with F125W, N187A counted along it
Sequence of CfEcR-DEF mutant V107I/Y127E/G (P28702 299-449, stated change not applied): as the sequence (P28702 299-449, stated change not applied, further chain) above
Sequence of CfEcR-DEF mutant V107I/Y127E/G (O77255 entry or part of it V390I/Y410E/INS541G): as the sequence (O77255 entry or part of it V379E) above, with E161V counted along it
Sequence of CfEcR-DEF mutant V128F (P28702 299-449): as the sequence (P28702 299-449, stated change not applied, further chain) above
Sequence of CfEcR-DEF mutant V128F (O77255 entry or part of it V411F): as the sequence (O77255 entry or part of it V379E) above, with E161V, V193F counted along it
Sequence of CfEcR-DEF mutant W238E (P28702 299-449): as the sequence (P28702 299-449, stated change not applied, further chain) above
Sequence of CfEcR-DEF mutant W238E (O77255 entry or part of it W521E): as the sequence (O77255 entry or part of it V379E) above, with E161V, W303E counted along it
Sequence of CfEcR-DEF mutant Y120M (O77255 entry or part of it Y403M): as the sequence (O77255 entry or part of it V379E) above, with E161V, Y185M counted along it
Sequence of CfEcR-DEF mutant Y120M (P28702 299-449, further chain): as the sequence (P28702 299-449, stated change not applied, further chain) above
Sequence of CfEcR-DEF mutant F109M (O77255 entry or part of it F392M): as the sequence (O77255 entry or part of it A393N) above, with F186M, N187A counted along it
Sequence of CfEcR-DEF mutant F109M (P28702 299-449, further chain): as the sequence (P28702 299-449, stated change not applied, further chain) above

Row | SMILES | pEC50 [1] | Rel Max FI [1] | Rel Max FI [2] | pEC50 [2] | Rel Max FI [3] | pEC50 [3] | pEC50 [4] | Rel Max FI [4] | Rel Max FI [5] | pEC50 [5] | pEC50 [6] | Rel Max FI [6] | pEC50 [7] | Rel Max FI [7] | Rel Max FI [8] | pEC50 [8] | pEC50 [9] | Rel Max FI [9] | Rel Max FI [10] | pEC50 [10] | further results
1 | CC(C)(O)CC[C@@H](O)[C@](C)(O)[C@H]1CC[C@@]2(O)C3=CC(=O)[C@@H]4C[C@@H](O)[C@@H](O)C[C@]4(C)[C@H]3CC[C@]12C [20E, 20-hydroxyecdysone] | < 4.48 | 0.03 | 0 | < 4.48 | 0 | < 4.48 | < 4.48 | 0 | 0 | < 4.48 | < 4.48 | 0 | < 4.48 | 0 | 0.02 | < 4.48 | < 4.48 | 0 | 0.02 | ~5.00 | –
2 | CC(C)CC[C@@H](O)[C@](C)(O)[C@H]1CC[C@@]2(O)C3=CC(=O)[C@@H]4C[C@@H](O)[C@@H](O)C[C@]4(C)[C@H]3CC[C@]12C [PonA, ponasterone A] | 5.78 | 0.67 | 0.02 | < 4.48 | 0 | < 4.48 | ~4.70 | 0.16 | 0.04 | < 4.48 | ~5.00 | 0.65 | < 4.48 | 0 | 0.03 | < 4.48 | ~5.00 | 0.33 | 0.03 | < 4.48 | Fold increase over WT ([11]; 1.6 nM ligand): 1.33; Fold increase over WT ([11]; 8 nM ligand): 1.7; Fold increase over WT ([11]; 40 nM ligand): 9.42; Fold increase over WT ([11]; 200 nM ligand): 6.50; Fold increase over WT ([11]; 1 μM ligand): 3.00
